Experimental data from patent US9365851B2, “Spalt-like transcription factor 4 (SALL4) and uses thereof” (National University of Singapore, priority 2011, dated 2016).

Experiments:
[1] = system: SALL4; assay: SALL4 knock-down in HCC cells (qPCR, Western blot); assay type: cell-based, human
Method: Lentiviruses expressing scrambled shRNA or E5 SALL4-specific shRNA were packaged by treansfection of 293T cells with lentiviral vector pLL3.7. 24 hours and 48 hours post-transfection, viruses were harvested and filtered through […]. Virus titers were determined by FACS analysis of GFP expression using infected 3T3 cells by the conventional ways. MOI 0.5 to 5 was used dependent on individual cell lines. Transduction of HCC cells were carried out using spinoculation protocol, virus was added to the trypsinized cells and let settle for an hour at 37° C. in a humidified atmostphere of 5% CO2, centrifuged at 2,200 RPM at 37° C. for 90 mins and incubated overnight at 37° C. in a humidified atmostphere of 5% CO2. Transduction efficiency was determined by GFP expression by FACS analysis.
After successfully establishing the expression pattern of SALL4 in human livers at various stages and the clinical significance of SALL4 in HCC, the functional roles of SALL4 in HCC was investigated. […] The efficiency of virus transduction was assessed by FACS analysis of GFP expression. […]
Next, the potential of SALL4 as a molecular target for therapeutic intervention in HCC was examined by performing loss-of-function studies. […] The efficiency of virus transduction was assessed by the percentage of cells expressing GFP by flow cytometry. […]

[2] = system: SNU-398; assay: Cellular uptake of FITC-labeled peptide; assay type: cell-based, human
Method: Cells were grown typically in 6 well plates (35 mm dish) to 50-70% confluence. Usually the transfect ion efficiency is somehow cell type specific. 2 mM peptide was diluted 4 times in PBS (2 ul+6 ul) (For FITC peptidedo not dilute the 2 mM stock). For each transfection reaction tube with 100 ul PBS+1 ul diluted peptide was set up. Chariot reagent was diluted 1:10 in ddH2O and for each transfection a 94 ul H2O tube+6 ul diluted Chariot was prepared (No master mix for more than 4 transfections). The 2 tubes were carefully mixed by pipetting up and down and incubated 30 min. at room temperature. Medium was aspirated from the dish (well) and cells were overlay with the mix. 400 ul serum free medium was added and cells were incubated further for 1 h 37 C (cell incubator). 500 ul complete medium (with 10% serum) was finally added. If cells are not very sensitive to serum starvation (cancer cell lines) 5% serum could be used.
Fluorescent and Confocal microscopy was performed on cells treated with FITC labeled peptides with or without of transfection reagent depending on the cell type. Cells were mounted on cover slips using mounting media with DAPI (Invitrogen) and in some cases cytoskeleton dye (Invitrogen).
In order to evaluate their cellular uptake and localization, the N terminus of these peptides was labeled with fluorescein isothiocyanate (FITC). Despite the net positive charge of these peptides, their uptake by the cells is cell-type specific. Some cell lines such as HL-60 (an AML cell line) allowed the peptide to enter the cells without any modification or carrier, and some cell lines were not penetrable at all. In order to achieve a similar level of peptide delivery in most cell types, a Chariot Transfection Reagent (Active Motif) was used as a peptide carrier, as directed from the manufacturer. All cell types used in the study described herein were subjected to individual evaluation of the percentage of the cells in which the peptide was delivered as well as the duration of time during which they sustained the labeled peptide in the cells. After Chariot treatment, confocal microscopy studies confirmed uptake of these peptides throughout the cell, including nuclei (as evidenced by DAPI overlay, FIG. 1B).
Next tested was the cellular uptake and localization of these peptides in various types of cells using FITC-labeled wild type or scrambled peptides. Despite the net positive charge of these peptides, their penetration into cells is cell type-specific. Some cell lines, such as HL-60 (an AML cell line), allowed peptide entry without any modification or facilitator, while others such as SNU-398 were not penetrable at all. […] The overall success rate of peptide uptake by the cells was above 95% with Pep-1, as evaluated by flow cytometry (FIG. 9A). […]

peptide uptake (cells with peptide) ([2]; SNU-398, no carrier) | peptide uptake (cells with peptide) ([2]; SNU-398, with Chariot) | cells showing FITC-labeled peptide uptake ([2]; SNU-398, with Pep-1 carrier, flow cytometry) | Substance | SALL4 isoforms mRNA level after knockdown ([1]; SNU-398, four days post-transduction) | SALL4 protein level after knockdown ([1]; Western blot)
 |  |  | CTATTTAGCCAAAGGCAAA (short hairpin RNA, chemistry and delivery not given here, further chemistry not given here) [E5 shRNA] | 70% | almost all SALL4 proteins were gone
0% | 40% | Over 90% | H-MSRRKQAKPQHI-OH [wt peptide, MSRRKQAKPQHI] |  | 
